Our source for the Activity values is ChEMBL document CHEMBL5120891, “Beyond Proteolysis-Targeting Chimeric Molecules: Designing Heterobifunctional Molecules Based on Functional Effectors” (J Med Chem, 2022).

Molecules are shown by their SMILES.

The experiment concerns the target T1, Macrophage migration inhibitory factor (Homo sapiens) (UniProt P14174).
T1 sequence (whole entry): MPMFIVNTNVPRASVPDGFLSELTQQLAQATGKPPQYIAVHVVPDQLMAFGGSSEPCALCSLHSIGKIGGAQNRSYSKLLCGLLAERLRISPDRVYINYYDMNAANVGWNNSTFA
Put plainly: LYTAC activity at ASGPR/MIF (unknown origin) by cell based assay.

As to `CC(=O)N[C@H]1[C@H](OCCOCCOCCNC(=O)CCOCC(COCCC(=O)NCCOCCOCCO[C@@H]2O[C@H](CO)[C@H](O)[C@H](O)[C@H]2NC(C)=O)(COCCC(=O)NCCOCCOCCO[C@@H]2O[C@H](CO)[C@H](O)[C@H](O)[C@H]2NC(C)=O)NC(=O)CNC(=O)CCCOc2ccc3nc(-c4cn(-c5ccc(O)c(F)c5)nn4)ccc3c2)O[C@H](CO)[C@H](O)[C@@H]1O`, the Activity was over 1 µM.
